Source: the NIST ThermoML archive (doi:10.1016/j.jct.2008.10.010)

Test: molar heat capacity at constant pressure; xn = mol fraction of the nth substance listed
Details: 101.3 kPa, Liquid, Small sample (50 mg) DSC

CCC(C)(C)O [2-methylbutan-2-ol] + CCCCCCC
Details	molar heat capacity at constant pressure [J/K/mol]
300.15 K, x1 = 0.7015	252.48
300.15 K, x1 = 0.8023	251.41
300.15 K, x1 = 0.9139	250.21
300.15 K, x1 = 0.9609	249.66
301.14 K, x1 = 0.0061	225.7
301.14 K, x1 = 0.0494	236.34
301.14 K, x1 = 0.1	242.42
301.14 K, x1 = 0.1999	248.44
301.14 K, x1 = 0.2993	251.7
301.14 K, x1 = 0.4051	253.31
301.14 K, x1 = 0.4986	253.99
301.14 K, x1 = 0.5981	254.13
301.14 K, x1 = 0.7015	253.67
301.14 K, x1 = 0.8023	252.61
301.14 K, x1 = 0.9139	251.4
301.14 K, x1 = 0.9609	250.8
301.16 K, x1 = 0.0249	230.74
301.58 K, x1 = 0.1547	246.46
302.14 K, x1 = 0.0061	226.13
302.14 K, x1 = 0.0249	231.02
302.14 K, x1 = 0.0494	236.64
302.14 K, x1 = 0.1	243.03
302.14 K, x1 = 0.1547	246.89
302.14 K, x1 = 0.1999	249.24
302.14 K, x1 = 0.2993	252.65
302.14 K, x1 = 0.4051	254.36
302.14 K, x1 = 0.4986	255.15
302.14 K, x1 = 0.5981	255.29
302.14 K, x1 = 0.7015	254.9
302.14 K, x1 = 0.8023	253.83
302.14 K, x1 = 0.9139	252.62
302.14 K, x1 = 0.9609	251.98
303.15 K, x1 = 0.0061	226.42
303.15 K, x1 = 0.0249	231.23
303.15 K, x1 = 0.0494	236.93
303.15 K, x1 = 0.1	243.44
303.15 K, x1 = 0.1547	247.5
303.15 K, x1 = 0.1999	249.92
303.15 K, x1 = 0.2993	253.53
303.15 K, x1 = 0.4051	255.32
303.15 K, x1 = 0.4986	256.2
303.15 K, x1 = 0.5981	256.41
303.15 K, x1 = 0.7015	256.05
303.15 K, x1 = 0.8023	255
303.15 K, x1 = 0.9139	254.11
303.15 K, x1 = 0.9609	253.07
304.14 K, x1 = 0.0061	226.83
304.14 K, x1 = 0.0494	237.28
304.14 K, x1 = 0.1	243.93
304.14 K, x1 = 0.1547	248.12
304.14 K, x1 = 0.1999	250.66
304.14 K, x1 = 0.4986	257.22
304.14 K, x1 = 0.8023	256.13
304.14 K, x1 = 0.9139	254.91
304.14 K, x1 = 0.9609	254.18
304.16 K, x1 = 0.0249	231.5
304.16 K, x1 = 0.2993	254.39
304.16 K, x1 = 0.4051	256.27
304.16 K, x1 = 0.5981	257.54
304.16 K, x1 = 0.7015	257.2
305.14 K, x1 = 0.0061	227.18
305.14 K, x1 = 0.0249	231.73
305.14 K, x1 = 0.0494	237.51
305.14 K, x1 = 0.1	244.44
305.14 K, x1 = 0.1547	248.76
305.14 K, x1 = 0.1999	251.35
305.14 K, x1 = 0.2993	255.22
305.14 K, x1 = 0.4051	257.25
305.14 K, x1 = 0.4986	258.3
305.14 K, x1 = 0.5981	258.63
305.14 K, x1 = 0.7015	258.36
305.14 K, x1 = 0.8023	257.38
305.14 K, x1 = 0.9139	256.1
305.14 K, x1 = 0.9609	255.35
306.15 K, x1 = 0.0061	227.53
306.15 K, x1 = 0.0249	231.92
306.15 K, x1 = 0.0494	237.81
306.15 K, x1 = 0.1	244.85
306.15 K, x1 = 0.1547	249.34
306.15 K, x1 = 0.1999	252.03
306.15 K, x1 = 0.2993	256.04
306.15 K, x1 = 0.4051	258.23
306.15 K, x1 = 0.4986	259.33
306.15 K, x1 = 0.5981	259.69
306.15 K, x1 = 0.7015	259.47
306.15 K, x1 = 0.8023	258.63
306.15 K, x1 = 0.9139	257.22
306.15 K, x1 = 0.9609	256.43
307.14 K, x1 = 0.0061	227.97
307.16 K, x1 = 0.0249	232.13
307.16 K, x1 = 0.0494	238.05
307.16 K, x1 = 0.1	245.3
307.16 K, x1 = 0.1547	249.89
307.16 K, x1 = 0.1999	252.7
307.16 K, x1 = 0.2993	256.85
307.16 K, x1 = 0.4051	259.16
307.16 K, x1 = 0.4986	260.39
307.16 K, x1 = 0.5981	260.8
307.16 K, x1 = 0.7015	260.58
307.16 K, x1 = 0.8023	259.83
307.16 K, x1 = 0.9139	258.36
307.16 K, x1 = 0.9609	257.53
308.14 K, x1 = 0.0061	228.36
308.14 K, x1 = 0.0249	232.33
308.14 K, x1 = 0.0494	238.3
308.14 K, x1 = 0.1	245.7
308.14 K, x1 = 0.2993	257.61
308.14 K, x1 = 0.4051	260.05
308.14 K, x1 = 0.4986	261.33
308.14 K, x1 = 0.5981	261.79
308.14 K, x1 = 0.7015	261.67
308.14 K, x1 = 0.8023	260.9
308.14 K, x1 = 0.9139	259.4
308.14 K, x1 = 0.9609	258.61
308.16 K, x1 = 0.1547	250.43
308.16 K, x1 = 0.1999	253.31
309.15 K, x1 = 0.0061	228.7
309.15 K, x1 = 0.0249	232.53
309.15 K, x1 = 0.0494	238.53
309.15 K, x1 = 0.1	246.14
309.15 K, x1 = 0.1547	250.99
309.15 K, x1 = 0.1999	253.95
309.15 K, x1 = 0.2993	258.43
309.15 K, x1 = 0.4051	260.95
